Experimental data as given in the supplement of paper PMC6045584.
± gives the standard deviation of the averaged measurements.

What was measured:
[1] = compound: CC(=O)NCC(=O)N1[C@@H]2CC[C@H]1c1ccc(Nc3ncc(C(F)(F)F)c(NC4CCC4)n3)cc12; assay: surviving fraction relative to DMSO-only wells; higher = less growth inhibition; details: exposure time: 5 days
Summary of the method: (§1)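 Viability values are CellTiter-Glo luminescence readings, given as surviving fraction against the median of DMSO-only wells. The readings were taken after 10 minutes at room temperature, following five days of continuous exposure to inhibitors at 0.5, 1, 5, 10, 50, 100, 500 and 1000 nM that began 24 hours after log-phase tumour cell lines were seeded at 250–500 cells per well in 384-well plates. Every line was screened three times and kept only if replicate Pearson r >0.7 and median Z' >0.3.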

PACLITAXEL [2] = compound: T1, CC(=O)O[C@H]1C(=O)[C@@]2(C)[C@H]([C@H](OC(=O)c3ccccc3)[C@]3(O)C[C@H](OC(=O)[C@H](O)[C@@H](NC(=O)c4ccccc4)c4ccccc4)C(C)=C1C3(C)C)[C@]1(OC(C)=O)CO[C@@H]1C[C@@H]2O [PACLITAXEL]; assay: as above; details: exposure time: 5 days
Summary of the method: as §1

[3] = compound: CC(=O)c1c(C)c2cnc(Nc3ccc(N4CCNCC4)cn3)nc2n(C2CCCC2)c1=O; assay: as above; details: exposure time: 5 days
Summary of the method: as §1

CAMPTOTHECIN [4] = compound: T2, CC[C@@]1(O)C(=O)OCc2c1cc1n(c2=O)Cc2cc3ccccc3nc2-1 [CAMPTOTHECIN]; assay: as above; details: exposure time: 5 days
Summary of the method: as §1

YM155 [5] = compound: T3, COCC[n+]1c2c(n(Cc3cnccn3)c1C)C(=O)c1ccccc1C2=O [YM155]; assay: as above; details: exposure time: 5 days
Summary of the method: as §1

GEFITINIB = compound: COc1cc2ncnc(Nc3ccc(F)c(Cl)c3)c2cc1OCCCN1CCOCC1 [GEFITINIB]; assay: as above; details: exposure time: 5 days
Summary of the method: as §1

OSI-906 [6] = compound: T4, C[C@]1(O)C[C@@H](c2nc(-c3ccc4ccc(-c5ccccc5)nc4c3)c3c(N)nccn32)C1 [OSI-906]; assay: as above; details: exposure time: 5 days
Summary of the method: as §1

CELECOXIB [7] = compound: T5, Cc1ccc(-c2cc(C(F)(F)F)nn2-c2ccc(S(N)(=O)=O)cc2)cc1 [CELECOXIB]; assay: as above; details: exposure time: 5 days
Summary of the method: as §1

CARBOPLATIN = compound: O=C(O)C1(C(=O)O)CCC1.[NH2-].[NH2-].[Pt+2] [CARBOPLATIN]; assay: as above; details: exposure time: 5 days
Summary of the method: as §1

[8] = compound: CC(=O)NCC(=O)N1[C@@H]2CC[C@H]1c1ccc(Nc3ncc(C(F)(F)F)c(NC4CCC4)n3)cc12; assay: area under dose-response curve of surviving fraction (unscaled, Aref=0) (surviving fraction x log10(nM)); higher = more resistant; details: exposure time: 5 days; dose range 0.5-1000 nM
Summary of the method: (§2)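 Tumour cell lines in 384-well plates were exposed for five days to eight inhibitor concentrations from 0.5 to 1000 nM. Viability was read by CellTiter-Glo luminescence, normalised to DMSO-only wells, in three screens per line. Dose-response survival curves were fitted to surviving fractions by 3-parameter logistic regression in the drc R package. Area under the curve is the unscaled activity area (Aref = 0) over log10 dose.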

PACLITAXEL [9] = compound: T1, PACLITAXEL; assay: as above; details: exposure time: 5 days; dose range 0.5-1000 nM
Summary of the method: as §2

[10] = compound: CC(=O)c1c(C)c2cnc(Nc3ccc(N4CCNCC4)cn3)nc2n(C2CCCC2)c1=O; assay: as above; details: exposure time: 5 days; dose range 0.5-1000 nM
Summary of the method: as §2

CAMPTOTHECIN [11] = compound: T2, CAMPTOTHECIN; assay: as above; details: exposure time: 5 days; dose range 0.5-1000 nM
Summary of the method: as §2

YM155 [12] = compound: T3, YM155; assay: as above; details: exposure time: 5 days; dose range 0.5-1000 nM
Summary of the method: as §2

OSI-906 [13] = compound: T4, OSI-906; assay: as above; details: exposure time: 5 days; dose range 0.5-1000 nM
Summary of the method: as §2

CELECOXIB [14] = compound: T5, CELECOXIB; assay: as above; details: exposure time: 5 days; dose range 0.5-1000 nM
Summary of the method: as §2

HMLE3 BREAST
surviving fraction ([1]; 0.5 nM): 0.923 ± 0.046 | surviving fraction ([1]; 1 nM): 0.934 ± 0.029 | surviving fraction ([1]; 5 nM): 1.01 ± 0.053 | surviving fraction ([1]; 10 nM): 0.941 ± 0.092 | surviving fraction ([1]; 50 nM): 0.807 ± 0.027 | surviving fraction ([1]; 100 nM): 0.689 ± 0.0078 | surviving fraction ([1]; 500 nM): 0.357 ± 0.026 | surviving fraction ([1]; 1000 nM): 0.237 ± 0.041 | surviving fraction (PACLITAXEL [2]; 0.5 nM): 0.89 ± 0.065 | surviving fraction (PACLITAXEL [2]; 1 nM): 0.816 ± 0.1 | surviving fraction (PACLITAXEL [2]; 5 nM): 0.247 ± 0.019 | surviving fraction (PACLITAXEL [2]; 10 nM): 0.0813 ± 0.0093 | surviving fraction (PACLITAXEL [2]; 50 nM): 0.05 ± 0.007 | surviving fraction (PACLITAXEL [2]; 100 nM): 0.0377 ± 0.0042 | surviving fraction (PACLITAXEL [2]; 500 nM): 0.034 ± 0.0027 | surviving fraction (PACLITAXEL [2]; 1000 nM): 0.0287 ± 0.0011 | surviving fraction ([3]; 0.5 nM): 1.05 ± 0.084 | surviving fraction ([3]; 1 nM): 1.08 ± 0.081 | surviving fraction ([3]; 5 nM): 1.05 ± 0.026 | surviving fraction ([3]; 10 nM): 1.03 ± 0.043 | surviving fraction ([3]; 50 nM): 1.1 ± 0.099 | surviving fraction ([3]; 100 nM): 0.962 ± 0.086 | surviving fraction ([3]; 500 nM): 0.925 ± 0.12 | surviving fraction ([3]; 1000 nM): 0.933 ± 0.066 | surviving fraction (CAMPTOTHECIN [4]; 0.5 nM): 0.304 ± 0.027 | surviving fraction (CAMPTOTHECIN [4]; 1 nM): 0.85433 ± 0.00058 | surviving fraction (CAMPTOTHECIN [4]; 5 nM): 0.485 ± 0.027 | surviving fraction (CAMPTOTHECIN [4]; 10 nM): 0.3 ± 0.0056 | surviving fraction (CAMPTOTHECIN [4]; 50 nM): 0.127 ± 0.026 | surviving fraction (CAMPTOTHECIN [4]; 100 nM): 0.0547 ± 0.0029 | surviving fraction (CAMPTOTHECIN [4]; 500 nM): 0.0203 ± 0.0015 | surviving fraction (CAMPTOTHECIN [4]; 1000 nM): 0.0213 ± 0.00058 | surviving fraction (YM155 [5]; 0.5 nM): 0.974 ± 0.062 | surviving fraction (YM155 [5]; 1 nM): 1.06 ± 0.15 | surviving fraction (YM155 [5]; 5 nM): 0.425 ± 0.072 | surviving fraction (YM155 [5]; 10 nM): 0.129 ± 0.02 | surviving fraction (YM155 [5]; 50 nM): 0.0257 ± 0.00058 | surviving fraction (YM155 [5]; 100 nM): 0.0227 ± 0.00058 | surviving fraction (YM155 [5]; 500 nM): 0.018 ± 0.001 | surviving fraction (YM155 [5]; 1000 nM): 0.0213 ± 0.00058 | surviving fraction (GEFITINIB; 0.5 nM): 1.11 ± 0.075 | surviving fraction (GEFITINIB; 1 nM): 1.03 ± 0.016 | surviving fraction (GEFITINIB; 5 nM): 1.07 ± 0.016 | surviving fraction (GEFITINIB; 10 nM): 1.08 ± 0.031 | surviving fraction (GEFITINIB; 50 nM): 1.04 ± 0.051 | surviving fraction (GEFITINIB; 100 nM): 0.963 ± 0.07 | surviving fraction (GEFITINIB; 500 nM): 0.904 ± 0.1 | surviving fraction (GEFITINIB; 1000 nM): 0.843 ± 0.083 | surviving fraction (OSI-906 [6]; 0.5 nM): 0.808 ± 0.068 | surviving fraction (OSI-906 [6]; 1 nM): 0.887 ± 0.071 | surviving fraction (OSI-906 [6]; 5 nM): 0.931 ± 0.045 | surviving fraction (OSI-906 [6]; 10 nM): 0.841 ± 0.0091 | surviving fraction (OSI-906 [6]; 50 nM): 0.875 ± 0.047 | surviving fraction (OSI-906 [6]; 100 nM): 0.901 ± 0.079 | surviving fraction (OSI-906 [6]; 500 nM): 0.783 ± 0.035 | surviving fraction (OSI-906 [6]; 1000 nM): 0.724 ± 0.12 | surviving fraction (CELECOXIB [7]; 0.5 nM): 1.08 ± 0.07 | surviving fraction (CELECOXIB [7]; 1 nM): 1.06 ± 0.032 | surviving fraction (CELECOXIB [7]; 5 nM): 1.08 ± 0.1 | surviving fraction (CELECOXIB [7]; 10 nM): 1.06 ± 0.025 | surviving fraction (CELECOXIB [7]; 50 nM): 1.04 ± 0.15 | surviving fraction (CELECOXIB [7]; 100 nM): 1.09 ± 0.076 | surviving fraction (CELECOXIB [7]; 500 nM): 1.1 ± 0.061 | surviving fraction (CELECOXIB [7]; 1000 nM): 1.03 ± 0.17 | surviving fraction (CARBOPLATIN; 0.5 nM): 1.07 ± 0.033 | surviving fraction (CARBOPLATIN; 1 nM): 1.1 ± 0.053 | surviving fraction (CARBOPLATIN; 5 nM): 1.11 ± 0.06 | surviving fraction (CARBOPLATIN; 10 nM): 1.18 ± 0.092 | surviving fraction (CARBOPLATIN; 50 nM): 1.06 ± 0.042 | surviving fraction (CARBOPLATIN; 100 nM): 1.05 ± 0.11 | surviving fraction (CARBOPLATIN; 500 nM): 1.02 ± 0.057 | surviving fraction (CARBOPLATIN; 1000 nM): 1.08 ± 0.13 | area under dose-response curve [8]: 2.59 | area under dose-response curve (PACLITAXEL [9]): 0.754 | area under dose-response curve [10]: 3.23 | area under dose-response curve (CAMPTOTHECIN [11]): 0.888 | area under dose-response curve (YM155 [12]): 1.02 | area under dose-response curve (OSI-906 [13]): 2.79 | area under dose-response curve (CELECOXIB [14]): 3.53
